{
  "source": "patent US5688936A",
  "about": "“Vesicle membrane transport proteins” (priority 1993, dated 1997)",
  "molecules": {"B1": {"name": "brain-derived neurotrophic factor (BDNF): neurotrophic factors such as brain-derived neurotrophic factor (BDNF) (protein, UniProt P23560 19-247, looked up)", "Neurotrophic factor BDNF …": "APMKEANIRGQGGLAYPGVRTHGTLESVNGPKAGSRGLTSLADTFEHVIEELLDEDQKVRPNEENNKDADLYTSRVMLSSQVPLEPPLLFLLEEYKNYLDAANMSMRVRRHSDPARRGELSVCDSISEWVTAADKKTAVDMSGGTVTVLEKVPVSKGQLKQYFYETKCNPMGYTKEGCRGIDKRHWNSQCRTTQSYVRALTMDSKKRIGWRFIRIDTSCVCTLTIKRGR"}},
  "key": {"central dopamine neurons": {"tested_on": "central dopamine neurons", "conditions": "primates; cited from earlier work"}, "dopamine nerve terminals": {"tested_on": "dopamine nerve terminals", "conditions": "mice; cited from earlier work"}, "[1]": {"biological_target": "T1, chromaffin granule amine transport protein (Rattus norvegicus, UniProt Q01818)", "T1 sequence (Q01818 1-521)": "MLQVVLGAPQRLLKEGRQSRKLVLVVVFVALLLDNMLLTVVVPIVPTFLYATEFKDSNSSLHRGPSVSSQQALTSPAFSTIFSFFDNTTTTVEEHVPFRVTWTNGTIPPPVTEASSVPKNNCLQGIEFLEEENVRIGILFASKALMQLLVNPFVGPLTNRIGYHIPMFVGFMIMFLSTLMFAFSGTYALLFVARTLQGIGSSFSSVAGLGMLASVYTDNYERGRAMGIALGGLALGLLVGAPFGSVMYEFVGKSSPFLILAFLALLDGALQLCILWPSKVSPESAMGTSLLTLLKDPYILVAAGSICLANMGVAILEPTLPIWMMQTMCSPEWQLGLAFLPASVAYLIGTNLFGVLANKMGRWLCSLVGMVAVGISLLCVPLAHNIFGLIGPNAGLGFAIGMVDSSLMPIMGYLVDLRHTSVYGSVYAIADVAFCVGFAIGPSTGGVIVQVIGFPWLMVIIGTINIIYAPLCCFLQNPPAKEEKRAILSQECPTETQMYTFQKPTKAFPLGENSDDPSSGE", "experiment": "cell-based", "type": "cell-based", "conditions": "for inhibition of vesicular amine uptake/transport (fluorescence assay, in words): concentrations of Table 1", "protocol": "Uptake and cellular compartmentalization of loaded dopamine were performed by growing cells on poly-lysine-coated glass coverslips. […] The cells were then washed three times in 0.1M sodium phosphate, pH 7.4, and incubated at 4° C. in 2% glyoxylic acid/0.5 mg% MgCl2, pH 4.9-5.0 for three minutes as described by de la Torre, J. Neurosci. Meth. 3:1-5 (1980). Briefly, excess solution is wiped off the bottom and edges of the slide using absorbent paper, taking care not to touch the section. The coverslips were then drained thoroughly, dried in air at 45° C. heated to 80° C. for five minutes, inverted over mineral oil on glass slides and examined under fluorescence using the appropriate filters as described by Knigge et al., Brain Res. 120:393-405 (1977). Briefly, the preparations were infiltrated with warm immersion oil and examined in a Leitz MPV2 microspectrofluorometer equipped with Schoffel excitation and emission grating monochromators, photomultipliers, and ratio computing circuitry. Cells were scanned with either monochromatic light (370 nm) or narrow band excitation (S405, BG3) light for the purpose of identifying fluorescence within cells. Ploem illumination was used in combination with a X 63 or X 100 oil immersion objective.\nDopamine-loaded fluorescence was carried out as described in Example 1. […] Glyoxylic-acid-induced fluorescence was used to determine the intracellular distribution as described above in Example 1. The procedures were the same as described in Example 1 however a pure cDNA clone encoding the vesicle membrane transport protein, selected in the presence of MPP^+, obtained as described herein, was used rather than the primary transformant. […]\nThe effects of various pharmacologic agents were tested to determine whether the properties of the protein encoded by the mpp^res cDNA corresponded with those expected for the chromaffin granule amine transport protein. […] The cells were pre-incubated in Krebs-Ringer buffer containing 1 μM pargyline and the dose of the drug indicated for 15 minutes. 25 nM [^3 H]-dopamine was then added in the same buffer and after incubation at 37° C. for one hour, the cells were washed in cold Krebs-Ringer buffer, lysed and counted in Ecolite (ICN) as described by Greene and Rein, Brain Res. 129:247-263 (1978). Values were determined from three separate wells and the mean was expressed as percent of control uptake±standard deviation. […] The dose required to inhibit maximal uptake by 50%, Ki, was estimated from the fluorescence data using a range of concentrations for each agent."}, "PC12 cells [2]": {"tested_on": "PC12 cells", "conditions": "percent of control uptake ± SD; agent 10 mM; 25 nM [3H]-dopamine, 1 h, 37° C.", "method": "(§2) The effects of various pharmacologic agents were tested to determine whether the properties of the protein encoded by the mpp^res cDNA corresponded with those expected for the chromaffin granule amine transport protein. […] The cells were pre-incubated in Krebs-Ringer buffer containing 1 μM pargyline and the dose of the drug indicated for 15 minutes. […] Values were determined from three separate wells and the mean was expressed as percent of control uptake±standard deviation."}, "[3]": {"biological_target": "T1, chromaffin granule amine transport protein", "experiment": "Quantitative [3H]dopamine transport assay with mpp^res CHO cell homogenate", "type": "biochemical", "conditions": "dose-response, 2-minute incubation (FIG. 15C)", "protocol": "The quantity of label bound is measured after filtration of the assay mixture. Preferably, the label is a radioactive label. […] This can be done by standard graphic kinetic techniques such as the Lineweaver-Burke plot.\nIncubation was performed at 29° C. for the time period indicated (from 2 minutes to 30 minutes). The assay was terminated by dilution in cold assay buffer followed by filtration through 0.2 μm Supor™ 200 membranes (Gelman, Ann Arbor, Mich.) and the bound radioactivity was measured. The cells used for the quantitative assay are selected in MPP^+ or screened with antibody to ensure that they express the transporter at high levels, as it is difficult to measure activity in this assay at low levels of transporter expression.\nThe quantitative transport test was performed as described above on wild-type CHO cells and mpp^res CHO cells."}, "[4]": {"tested_on": "plasma membrane monoamine transport activity", "conditions": "cited from earlier work"}, "idiopathic PD": {"tested_on": "idiopathic PD", "conditions": "in vivo, cited from earlier work"}, "monoamine oxidase": {"tested_on": "monoamine oxidase", "conditions": "cited from earlier work"}, "wild-type CHO cells": {"tested_on": "wild-type CHO cells", "experiment": "MTT cytotoxicity assay in wild-type CHO cells", "type": "cell-based, Chinese hamster", "conditions": "CHO cells (FIG. 6b)", "protocol": "(§1) Differential susceptibility to the respiratory complex I inhibitors MPP^+ and rotenone was shown by measuring toxicity by measuring general cell dehydrogenase activity with reduction of a tetrazolium dye (MTT) in a spectrophotometric plate assay as described by Hansen et al., J. Immunol. Methods 119:203-210 (1989). Briefly, a stock solution of MTT (3,(4,5-dimethylthiazol-2-yl)2,5-diphenyltetrazolium bromide) was dissolved at a concentration of 5 mg/ml in sterile phosphate buffered saline at room temperature. To each well was added 25 μl of the stock solution. After two hours of incubation at 37° C., 100 μl of extraction buffer (20% w/v of SDS in a solution of 50% each dimethylformamide and demineralized water with the pH adjusted to 4.7 with acetic acid and HCl). After an overnight incubation at 37° C., the optical densities at 570 nm were measured using a multiscanner, employing the extraction buffer as the blank. This assay was carried out in triplicate on 96-well plates (NUNC, Denmark). MPP^+ and rotenone at the concentrations indicated in FIG. 6a and 6b, respectively, was added to wild-type and MPP^+ -resistant CHO cells at approximately 50% confluence, and toxicity was assayed after 2-3 days by measuring general cell dehydrogenase activity with the reduction of the tetrazolium dye MTT (3,(4,5-dimethylthiazol-2-yl)2,5-diphenyl-tetrazolium bromide). After addition of the dye at a final concentration of 1 mg/ml, the cells were incubated for two hours at 37° C. and the formazan product was solubilized in 10% sodium dodecyl sulfate (SDS). The plates were maintained at 37° C. for an additional twenty hours and the optical density was determined in an ELISA plate reader at a test wavelength of 570 nm, a reference wavelength of 630 nm and a calibration setting of 1.99. All determinations were performed in triplicate and expressed as the mean, with the error bars representing standard deviation (FIG. 6a and 6b)."}, "[5]": {"tested_on": "MPP^+ -resistant CHO cells", "experiment": "MTT cytotoxicity assay in MPP+-resistant transfected CHO cells", "type": "cell-based, Chinese hamster", "protocol": "as §1\nTo determine whether an alteration in the process of respiration was responsible for the resistance to MPP^+, the effects of other known respiratory inhibitors were examined. […] Thus, if the resistance were due to a change in the site of action, the transfected cells should also show resistance to rotenone. […] However, rotenone is considered to have its selected effect on respiration at relatively low doses, and an additional, less specific effect at higher doses.\nTherefore, the toxicity of MPP^+ to transfected cells in the presence of 1 μM reserpine was examined."}, "respiratory complex I": {"tested_on": "respiratory complex I", "conditions": "cited from earlier work"}, "PC12 cells [6]": {"tested_on": "PC12 cells", "experiment": "cells", "conditions": "Rattus norvegicus, PC-12, 1 h, read-out: [^3 H]-Dopamine Uptake (PC12)", "method": "as §2"}, "[7]": {"tested_on": "vesicular amine transport protein", "conditions": "cited from earlier work"}, "amine stores": {"tested_on": "amine stores", "conditions": "in vivo; cited from earlier work"}, "chromaffin cells": {"tested_on": "chromaffin cells", "conditions": "co-incubation with MPP+; cited from earlier work"}, "[8]": {"tested_on": "complex III of the respiratory chain", "conditions": "cited from earlier work"}, "midbrain cells": {"tested_on": "midbrain cells", "conditions": "in vitro; cited from earlier work"}},
  "note": "“Also recorded” adds a separate entry of the source. Read-outs that look alike come from different tables or passages of the source.",
  "data": [
    {"molecule": "CN1CC=C(c2ccccc2)CC1", "note": "[1-methyl-4-phenyl-1,2,3,6-tetrahydropyridine]", "values": [
      {"measurement": "damage to central dopamine neurons", "setting": "central dopamine neurons", "result": "Damage to central dopamine neurons"},
      {"measurement": "damage to dopamine nerve terminals", "setting": "dopamine nerve terminals", "result": "dopamine nerve terminals in mice"}
    ]},
    {"molecule": "Cl.N", "note": "[NH4 Cl, ammonium chloride]", "values": [
      {"measurement": "inhibition of vesicular amine uptake/transport (fluorescence assay, in words)", "setting": "[1]", "result": "inhibited uptake only partially"},
      {"measurement": "[^3 H]-Dopamine Uptake (PC12)", "setting": "PC12 cells [2]", "result": "51 ± 3", "unit": "%"}
    ]},
    {"molecule": "COC(=O)[C@H]1[C@@H](OC(=O)c2ccccc2)C[C@@H]2CC[C@H]1N2C", "note": "[cocaine]", "values": [
      {"measurement": "inhibition of dopamine transport", "setting": "[3]", "result": "no inhibition"},
      {"measurement": "inhibition of plasma membrane monoamine transport", "setting": "[4]", "result": "inhibiting this activity"}
    ]},
    {"molecule": "C#CCN(C)C(C)Cc1ccccc1", "note": "(stereo not shown) [deprenyl]", "values": [
      {"measurement": "rate of progression of Parkinson's disease", "setting": "idiopathic PD", "result": "slow the rate of progression of the disease"},
      {"measurement": "rate of progression of Parkinson's disease", "setting": "idiopathic PD; listed as Deprenyl", "result": "appears to slow the rate of progression"},
      {"measurement": "inhibition of monoamine oxidase", "setting": "monoamine oxidase", "result": "inhibits the enzyme that activates MPTP, monoamine oxidase"}
    ]},
    {"molecule": "C=C(C)[C@H]1Cc2c(ccc3c2O[C@@H]2COc4cc(OC)c(OC)cc4[C@@H]2C3=O)O1", "note": "[rotenone]", "values": [
      {"measurement": "rotenone toxicity pattern (MTT assay)", "setting": "wild-type CHO cells", "result": "biphasic pattern"},
      {"measurement": "resistance of the transfectant to rotenone", "setting": "[5]; vs wild-type", "result": "no substantial resistance"},
      {"measurement": "inhibition of respiratory complex I", "setting": "respiratory complex I", "result": "inhibits complex I"}
    ]},
    {"molecule": "COc1cc2c(cc1OC)C1CC(=O)C(CC(C)C)CN1CC2", "note": "(stereo not shown) [tetrabenazine]", "values": [
      {"measurement": "inhibition of vesicular amine uptake/transport (fluorescence assay, in words)", "setting": "[1]", "result": "inhibited transport, but at high concentrations"},
      {"measurement": "Ki", "setting": "[1]; dose required to inhibit maximal uptake by 50%, estimated from fluorescence data, read-out: Ki (est)", "result": 100, "unit": "µM"},
      {"measurement": "inhibition of dopamine transport", "setting": "[3]", "result": "inhibition by both reserpine and tetrabenazine"},
      {"measurement": "activity at 100 µM", "setting": "PC12 cells [6]", "result": "45 ± 2", "unit": "%"},
      {"measurement": "inhibition of vesicular amine transport", "setting": "[7]", "result": "an inhibitor of vesicular uptake; also recorded: inhibit this transport activity"},
      {"measurement": "potency to deplete central rather than adrenal amine stores", "setting": "amine stores", "result": "greater potency of that drug to deplete central rather than adrenal amine stores"},
      {"measurement": "effect on MPP+ toxicity to chromaffin cells", "setting": "chromaffin cells", "result": "chromaffin cell toxicity was potentiated"}
    ]},
    {"molecule": "oligomycin", "values": [
      {"measurement": "oligomycin toxicity pattern", "setting": "[5]; wild-type vs resistant transfected CHO cells", "result": "same pattern of toxicity in wild-type and in resistant transfected CHO cells"},
      {"measurement": "inhibition of respiratory complex III", "setting": "[8]", "result": "inhibits complex III"}
    ]},
    {"molecule": "B1", "values": [
      {"measurement": "protection of midbrain cells from MPP+", "setting": "midbrain cells", "result": "can protect midbrain cells from MPP^+ in vitro"}
    ]}
  ]
}
